{"source": "patent US20230172920A1", "about": "“DOSING REGIMEN FOR TREATING A DISEASE MODULATED BY CSF-1R” (Novartis AG, priority 2020, published 2023)", "key": {"[1]": {"test_system": "MC38 syngeneic mouse model", "test": "MC38 syngeneic mouse model, tumor growth", "type": "in vivo, C57BL/6N mice", "settings": "repeat with suboptimal anti-PD-1 dose (5 mg/kg); BLZ945 4 days on/3 days off", "protocol": "In another set of experiments using the MC38 syngeneic mouse model in C57BL/6N mice two different schedules of BLZ945 were compared for efficacy (FIG. 3) using once weekly dosing of BLZ945 and 4 days on/3 days off dosing of BLZ945 alone and in combination with anti-PD-1. […] On day 14 post treatment start, there was a trend of tumor growth inhibition, corresponding to a % T/C vs. control of 28%.\nDoses of 200 mg/kg BLZ945 and 10 mg/kg anti-PD-1 were given on the schedules indicated and tumor volumes measured on day 14 after study initiation. Statistical significance was calculated using one-way ANOVA with post hoc Dunnett's test for comparison of treatment versus control group.\nEfficacy testing was repeated with a suboptimal dose of anti-PD-1 (5 mg/kg) in order to test for an additive effect of BLZ945 to be observed when given in combination."}, "[2]": {"test": "Blood and brain exposure in mice (RD-2019-00100)", "type": "in vivo", "settings": "for Kp at 5 days: read-out: ratio of brain to blood exposures", "protocol": "Several studies were performed to understand PK/PD relationships for CNS microglia clearance in mice. In the first study (RD-2019-00100) mice were treated once daily (qd) for between 1 and 5 consecutive days with a dose of 169 mg/kg BLZ945. Additionally, two dose groups received 169 mg/kg BLZ945 for 5 consecutive days followed by either 3 or 7 days of drug withdrawal (washout). […] Pharmacokinetic analysis was performed on blood and brain samples taken from each group at 3 hours after the final dose on the indicated necropsy day. […] Exposures dropped by more than 1000-fold following the washout period (FIG. 8 B).\nFIG. 8: (A) Microglial depletion in the cortex, as assessed by Iba1/Aif-1 immunohistological staining at necropsy. Sections were analyzed for total number of microglia cell bodies per sample area. Values are group means±SD (n=3). (B) Exposure of BLZ945 in blood and brain 3 hours after the last dose on the day of necropsy. Values are group means (n=3).\nIn a follow-up study (RD-2019-00100), mice were treated with BLZ945 for 5 consecutive days with a range of doses from 7 to 169 mg/kg. The two lowest doses of 7 mg/kg and 20 mg/kg were ineffective for microglial depletion. […] Here the ratio of brain to blood exposures was approximately 30% at the four lowest doses and approximately 55% at the highest dose (FIG. 9 B).\nFIG. 9: Dose-dependent reduction of microglia. (A) Mice were treated for 5 consecutive days with BLZ945 at the indicated doses. Samples were analyzed histologically by Iba1/Aif-1 staining and quantified for total microglia cell bodies per sample area. Data are group means±SD (n=3). (B) Exposure of BLZ945 in blood and brain following 5 consecutive days of dosing at multiple doses. Values are group means±SD (n=3)."}, "[3]": {"test": "Blood, brain and spinal cord exposure in SOD1G93A mice, b.i.d. dosing (RD-2019-00111)", "type": "in vivo", "settings": "mouse, brain and spinal cord relative to blood, three hours after the final dose, read-out: brain and spinal cord drug exposure relative to blood", "protocol": "Dosing was examined in the SOD1G93A mouse model of ALS, the most commonly used rodent ALS model (RD-2019-00111). Twice daily dosing (b.i.d.) was examined after 5 consecutive dosing days. Microglia were depleted in the cortex by approximately 25% and 75% following treatment with 50 mg/kg and 80 mg/kg BLZ945. BLZ945 dosed b.i.d. at 10 mg/kg was not effective (FIG. 10 A).\nFIG. 10: BLZ945-mediated microglial depletion in the cortex, as assessed by Iba1/Aif-1 immunohistological staining (A) or in spinal cord by qPCR analysis (B) Values are group means±SD (n=3). (C and D) Exposure of BLZ945 in blood and CNS brain and spinal cord 3 hours after the final dose of the study."}, "microglia": {"test_system": "microglia", "test": "Microglia depletion in lumbar spinal cord, Iba1 qPCR, 8-week SOD1G93A efficacy study (RD-2019-00092)", "type": "in vivo, SOD1G93A mouse", "settings": "for microglia depleted (lumbar spinal cord): 8 weeks", "protocol": "BLZ945 was dosed over an 8-week period in a mouse model of ALS (in house data). BLZ945 was tested for efficacy in preventing or delaying disease progression in the SOD1G93A ALS mouse (RD-2019-00092). […] Normal body weight gain is also impaired in this model. These physiological impairments are considered as mechanistic readouts given that they best recapitulate the clinical disease phenotype (Turner et al 2013). Animals were dosed from 8 to 16 weeks of age with daily (q.d) doses of BLZ945 at either 65 mg/kg, 170 mg/kg, or 170 mg/kg delivered intermittently with a 7 day ON/7 day OFF regimen.\nMicroglia were depleted by greater than 90% with the high dose (170 mg/kg) of BLZ945 and by about 50% with the low dose (65 mg/kg). […] Blood and CNS exposure to BLZ945 were measured at 3 hours post-dose on the day of necropsy (Table 8). BLZ945 spinal cord exposure ratios (relative to blood) were consistent across dose groups at approximately 0.4 (Table 9).\nFIG. 11: Microglia depletion in the lumbar spinal cord, assessed by Iba1 transcript expression by qPCR. Samples were collected at necropsy on the final day of dosing of the eight-week study. Values are group means±SD (n=12-15). Data are presented as fold changes in comparison to the SOD1 vehicle-treated group. Statistical analyses were by Kruskal-Wallis test with Dunn's multiple comparison"}, "Soluble TREM2": {"test_system": "Soluble TREM2", "test": "Soluble TREM2 in plasma and CSF, 13-wk cynomolgus monkey study (1779034)", "type": "in vivo", "settings": "for TREM2 plasma values: 7 days-on 7 days-off, mid- and high-doses; for decrease of soluble TREM2 in CSF: high dose", "protocol": "In a preclinical 13-wk study (Study number 1779034), cynomolgus monkey were treated with 30, 60 and 200 mg/kg/day BLZ945 on daily oral dosing or at 60 and 200 mg/kg/day on 7 days-on and 7 days-off treatment cycles. With either regimen, the dosing period was for 91 days followed by a drug-free period up to a total of […]. Plasma was collected at pre-dose, during the dosing period at different time points and during the recovery time, and CSF was collected at necropsy at end of dosing and recovery periods. Soluble TREM2, a biomarker of microglial activation, was measured in plasma and CSF."}}, "note": "Like-named read-outs stand apart in the source and are kept apart here."}
{"compound": "CNC(=O)c1cc(Oc2ccc3nc(N[C@@H]4CCCC[C@H]4O)sc3c2)ccn1", "note": "[BLZ945, 4-((2-(((1R,2R)-2-hydroxycyclohexyl)amino)benzo[d]thiazol-6-yl)oxy)-N-methylpicolinamide]", "values": [{"measurement": "tumor growth inhibition", "setting": "[1]", "value": "not either of the single agent groups dosed with BLZ945 or anti-PD-1 resulted in a statistically significant tumor growth inhibition"}, {"measurement": "drop of exposures following washout", "setting": "[2]; 169 mg/kg qd 5 days, then 3 or 7 days washout", "value": "more than 1000 fold"}, {"measurement": "accumulation with daily dosing (blood and brain exposures)", "setting": "[2]; 169 mg/kg qd, consecutive dosing days", "value": "lack of accumulation"}, {"measurement": "dose dependence of blood and brain exposures", "setting": "[2]; 7 to 169 mg/kg, 5 consecutive days", "value": "linear increases in both blood and brain exposures with increased doses"}, {"measurement": "Kp at 3 h", "setting": "[2]; mouse, brain relative to blood, 169 mg/kg qd, 1-5 days, 3 hours after final dose", "value": "~0.5"}, {"measurement": "Kp at 5 days", "setting": "[2]; mouse, brain relative to blood, four lowest doses (7-100 mg/kg), 5 consecutive days", "value": "~0.3"}, {"measurement": "Kp at 5 days", "setting": "[2]; mouse, brain relative to blood, highest dose (169 mg/kg), 5 consecutive days", "value": "~0.55"}, {"measurement": "Kp at 3 h", "setting": "[3]", "value": "~0.3"}, {"measurement": "microglia depleted (lumbar spinal cord)", "setting": "microglia; 65 mg/kg q.d.", "value": "about 50%"}, {"measurement": "microglia recovery compared to high dose animals", "setting": "microglia; 170 mg/kg 7 day ON/7 day OFF, sacrificed at 7 days off", "value": "greater than 50%"}, {"measurement": "microglia depleted (lumbar spinal cord)", "setting": "microglia; 170 mg/kg q.d. continuous", "value": "greater than 90%"}, {"measurement": "TREM2 plasma values", "setting": "Soluble TREM2; end of off-treatment week", "value": "in the range of control values at end of off-treatment week"}, {"measurement": "TREM2 plasma values", "setting": "Soluble TREM2; end of on-treatment weeks", "value": "decreased at end of on-treatment weeks"}, {"measurement": "decrease of soluble TREM2 in CSF", "setting": "Soluble TREM2; continuous dosing 3 months", "value": "about 25 fold"}, {"measurement": "time for plasma TREM2 to return to baseline after cessation of dosing", "setting": "Soluble TREM2; continuous dosing regimen", "value": "≤ 7", "unit": "days"}, {"measurement": "soluble TREM2 values at end of recovery phase", "setting": "Soluble TREM2; high daily and high on/off treatment groups", "value": "returned to that of untreated controls"}, {"measurement": "plasma TREM2, remaining", "setting": "Soluble TREM2; mid-continuous (60 mg/kg/day) and high continuous (200 mg/kg/day) daily oral dosing", "value": "40-45 % of the predose value"}, {"measurement": "decrease of soluble TREM2 in CSF", "setting": "Soluble TREM2; on-off dosing 3 months", "value": "about 4.6 fold"}]}
